This is an account of results in patent US20240238448A1, “USE OF CHEMICAL EPIGENETIC MODIFIERS TO MODULATE GENE […] VECTORS” (The University of North Carolina at Chapel Hill, priority 2021, published 2024).

The subject of data set [1] is AAV2-BD-JET-GFP genomes in 293-ZF-FKBP cells. Briefly: CEM activation of AAV2-BD-JET-GFP vectors in 293-ZF-FKBP cells, GFP fluorescence by flow cytometry. Format: cell-based, human. The settings on record: AAV vectors without the engrafted ZF BD, or AAV2-BD-JET-GFP in WT 293 cells. The protocol: It was then examined whether CEM87 can control recombinant AAV transgene expression in transduced cells. HEK293T.17 cells that stably expresses ZF-FKBP were transduced with an AAV2 vector that contains a zinc finger DNA binding domain recognition sequence specific to the array in ZF-FKBP upstream of a JET promoter and an eGPF reporter gene downstream of the promoter. After 24 h the cell media was replaced with media containing either 200 nM CEM87 or a DMSO control. 48 hours post CEM87 addition, cells were imaged and flow cytometry run to determine the percent eGFP expression.
Some of these experiments relied on a 293 cell line harboring a stable constitutive ZF-FKBP cassette (293-ZF-FKBP) and transduction by AAV2-JET-GFP vectors harboring the ZF binding domain recognition sequence (BD) upstream of the constitutive JET promoter (FIG. 5). Two chemicals were investigated in these initial studies, CEM87 and CEM114 which bind ZF-FKBP and act to recruit BRD4 or CBP/p300, respectively. […] Following the transduction of AAV2-BD-Jet-GFP vectors to 293-ZF-FKBP cells, increasing concentrations of CEMs (87 or 114) were added to the culture medium. Two days later, GFP fluorescence was analyzed by flow cytometry.
Background: In flow cytometry, cells or beads pass a laser one at a time.

Data set [2] can be described thus: Pharmacokinetics of CEM87 in mice. The settings on record: mouse, in vivo. On the procedure:
Pharmacokinetic Data of CEM87 in Mice: Initial and encouraging pharmacokinetics (PK) analysis of CEM87 were conducted. Mice were administered a single 3 mg/kg dose of CEM87 via intravenous (IV) injection or a single dose of 30 mg/kg of CEM87 through the intraperitoneal (IP) route (n=9 per group, 3 mice per time point).

The subject of data set [3] is transgene (firefly luciferase) expression in HEK293T.17 cells. In words: ZF-CEM technology AAV transgene expression, Promega Dual Luciferase Assay in HEK293T.17 cells. Type of data set: cell-based, human. On the procedure:
At a higher viral genomes per cell dose of virus, higher fold change in transgene (firefly luciferase) expression was seen. HEK293T.17 cells that stably express Renilla Luciferase (for normalization purposes) were plated at 7.5K cells per well in a 96 well plate. The next day, the cells were infected with ZF-CEM technology virus at either 2K or 20K vg/cell. After 24 hours, the cells were treated with varying concentrations of CEM87. After an additional 48 hours (72 hours post initial AAV infection), a Promega Dual Luciferase Assay was run to determine the levels of luciferase.
At 20K viral genomes per cell, ZF-CEM technology was able to increase the levels of transgene (firefly luciferase) expression in a statistically significant manner as early as 24 hours and continue to have effects up to 96 hours post CEM87 addition (FIG. 16). The highest fold change in luciferase expression was seen 24 hours after CEM87 dosage (48 hours after AAV infection). HEK293T.17 cells that stably express Renilla Luciferase (for normalization purposes) were plated at 7.5K cells per well in a 96 well plate. The next day, the cells were infected with ZF-CEM technology virus at 20K vg/cell. After 24 hours, the cells were treated with 200 nM CEM87. A Promega Dual Luciferase Assay was run every 24 hours post CEM87 dosage to determine the levels of luciferase over time.
At 20K viral genomes per cell, the impact of ZF-CEM technology on transgene expression was reversible through washout or washout with the addition of FK506, a chemical capable of competing off CEM87 from the transgene it is recruited to (FIG. 17). Reversibility was achieved within 24 hours of removal of CEM87 through washout or washout and treatment with 100× more FK506 ([…]). HEK293T.17 cells that stably express Renilla Luciferase (for normalization purposes) were plated at 7.5K cells per well in a 96 well plate. The next day, the cells were infected with ZF-CEM technology virus at 20K vg/cell. After 24 hours, the cells were treated with 200 nM CEM87. After 48 hours, wells were either washed out with fresh media or washed out with fresh media that contained […]. A Promega Dual Luciferase Assay was run every 24 hours post washout/FK506 dosage to determine the levels of luciferase over time.
HEK293T.17 cells that stably express Renilla Luciferase (for normalization purposes) were plated at 7.5K cells per well in a 96 well plate. The next day, the cells were infected with ZF-CEM technology virus at 20K vg/cell. After 24 hours, the cells were treated with 200 nM CEM114. After 48 hours, a Promega Dual Luciferase Assay was run to determine the levels of luciferase.

By bioavailability is commonly meant dose-corrected exposure relative to a reference, in per cent.

Read-outs that look alike come from different tables or passages of the source.

Consider `COc1ccc2c(c1)C(c1ccc(Cl)cc1)=N[C@@H](CC(=O)NCc1cn(CCOCCOCCOCCNC(=O)CCSCCC[C@@H]3/C=C(\C)C[C@H](C)C[C@H](OC)[C@H]4O[C@@](O)(C(=O)C(=O)N5CCCC[C@H]5C(=O)O[C@H](/C(C)=C/[C@@H]5CC[C@@H](O)[C@H](OC)C5)[C@H](C)[C@@H](O)CC3=O)[C@H](C)C[C@@H]4OC)nn1)c1nnc(C)n1-2` [CEM87], for which the “drug response in control experiments” value in data set [1] was “no drug response”. Further, the AUC(0-t) came out at 27500 ng·h/mL in data set [2] (single 3 mg/kg IV, read-out: exposure (AUC0-24)) and 114000 ng·h/mL in data set [2] (single 30 mg/kg IP, read-out: AUC0-24). Besides, the half-life was around 4 h in data set [2] (single 3 mg/kg IV, read-out: half-life (t1/2) (converted)) and 4 h in data set [2] (single 30 mg/kg IP, read-out: t1/2 (converted)). Moreover, the Cmax in data set [2] (single 3 mg/kg IV, read-out: maximal concentration (Cmax)) was found to be 34100 ng/mL; in data set [2] (single 30 mg/kg IP, read-out: Cmax), 15500 ng/mL. The molecule also returned a bioavailability in data set [2] (single 30 mg/kg IP) of around 50%. Also, the “chemical control of transgene (firefly luciferase) expression (in words)” value in data set [3] (2K or 20K vg/cell, varying concentrations, 48 hours after CEM87 (72 hours post AAV infection)) is “dose dependent chemical control”. The “earliest time of statistically significant increase of transgene (firefly luciferase) expression post CEM87 addition” value in data set [3] (20K vg/cell, 200 nM CEM87) turned out to be 24 h. Further, the “time up to which effects on luciferase expression continue post CEM87 addition” value in data set [3] (20K vg/cell, 200 nM CEM87) is recorded as “up to 96 hours”. Also, the “time of highest fold change in luciferase expression after CEM87 dosage” value in data set [3] (20K vg/cell, 200 nM CEM87, 48 hours after AAV infection) amounted to 24 h. Besides, in data set [3] (20K vg/cell, 200 nM CEM87 for 48 hours, then washout or washout with 100× more FK506), the “time to reversibility of transgene expression after removal of CEM87” value was at most 24 h.

For `CO[C@H]1C[C@@H](C)C/C(C)=C/[C@@H](CCCSCCC(=O)NCCOCCOCCOCCn2cc(COc3ccc(CCc4nc5cc(-c6c(C)noc6C)ccc5n4CCN4CCOCC4)cc3F)nn2)C(=O)C[C@H](O)[C@@H](C)[C@@H](/C(C)=C/[C@@H]2CC[C@@H](O)[C@H](OC)C2)OC(=O)[C@@H]2CCCCN2C(=O)C(=O)[C@]2(O)O[C@H]1[C@@H](OC)C[C@H]2C` [CEM114], the “effect on AAV transgene expression (in words)” value in data set [3] (20K vg/cell, 200 nM CEM114, 48 hours) is given as “increase AAV transgene expression”.
